Assay results taken from PubChem BioAssay (NCI).
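Following 48 hours of exposure in 96-well plates, responses at five concentrations were used to interpolate endpoints linearly. Definition used: TGI = concentration required for complete inhibition of growth.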

How the values were obtained:
Assay in all cases: DTP human tumour cell line panel, 48 h
[1] = test system: 786-0 renal
[2] = test system: A498 renal
[3] = test system: A549 NSCLC
[4] = test system: ACHN renal
[5] = test system: BT-549 breast
[6] = test system: CAKI-1 renal
[7] = test system: CCRF-CEM leukemia
[8] = test system: COLO 205 colon
[9] = test system: DU-145 prostate
[10] = test system: EKVX NSCLC
[11] = test system: HCC-2998 colon
[12] = test system: HCT-116 colon
[13] = test system: HCT-15 colon
[14] = test system: HL-60(TB) leukemia
[15] = test system: HOP-62 NSCLC
[16] = test system: HOP-92 NSCLC
[17] = test system: HS 578T breast
[18] = test system: HT29 colon
[19] = test system: IGROV1 ovarian
[20] = test system: K-562 leukemia
[21] = test system: KM12 colon
[22] = test system: LOX IMVI melanoma
[23] = test system: M14 melanoma
[24] = test system: MALME-3M melanoma
[25] = test system: MCF7 breast
[26] = test system: MDA-MB-231 breast
[27] = test system: MDA-MB-435
[28] = test system: MDA-N
[29] = test system: MOLT-4 leukemia
[30] = test system: NCI-H23 lung
[31] = test system: NCI-H460 lung
[32] = test system: NCI-H522 lung
[33] = test system: NCI/ADR-RES ovarian
[34] = test system: OVCAR-3 ovarian
[35] = test system: OVCAR-4 ovarian
[36] = test system: OVCAR-5 ovarian
[37] = test system: OVCAR-8 ovarian
[38] = test system: PC-3 prostate
[39] = test system: RPMI-8226 leukemia
[40] = test system: RXF 393 renal
[41] = test system: SF-268 CNS
[42] = test system: SF-295 CNS
[43] = test system: SF-539 CNS
[44] = test system: SK-MEL-2 melanoma
[45] = test system: SK-MEL-28 melanoma
[46] = test system: SK-MEL-5 melanoma
[47] = test system: SK-OV-3 ovarian
[48] = test system: SN12C renal
[49] = test system: SNB-19 CNS
[50] = test system: SNB-75 CNS
[51] = test system: SR leukemia
[52] = test system: SW-620 colon
[53] = test system: T-47D breast
[54] = test system: TK-10 renal
[55] = test system: U251 CNS
[56] = test system: UACC-257 melanoma
[57] = test system: UACC-62 melanoma
[58] = test system: UO-31 renal
[59] = test system: NCI-H226 lung

For NC(N)=NC1C(O)C(O)C(O)C(N=C(N)N)C1O (configuration not stated), the TGI [1] was > 100 µM, the TGI [2] was > 100 µM and the TGI [3] was > 100 µM. The TGI [4] was > 100 µM, the TGI [5] was > 100 µM and the TGI [6] was > 100 µM. The TGI [7] was > 100 µM, the TGI [8] was > 100 µM and the TGI [9] was > 100 µM. For the same compound, the TGI [10] was > 100 µM, the TGI [11] was > 100 µM and the TGI [12] was > 100 µM. The TGI [13] was > 100 µM, the TGI [14] was > 100 µM and the TGI [15] was > 100 µM. The TGI [16] was > 100 µM, the TGI [17] was > 100 µM and the TGI [18] was > 100 µM. The TGI [19] was > 100 µM, the TGI [20] was > 100 µM and the TGI [21] was > 100 µM. For the same compound, the TGI [22] was > 100 µM, the TGI [23] was > 100 µM and the TGI [24] was > 100 µM. For the same compound, the TGI [25] was > 100 µM, the TGI [26] was > 100 µM and the TGI [27] was > 100 µM. For the same compound, the TGI [28] was > 100 µM, the TGI [29] was > 100 µM and the TGI [30] was > 100 µM. The TGI [31] was > 100 µM, the TGI [32] was > 100 µM and the TGI [33] was > 100 µM. For the same compound, the TGI [34] was > 100 µM, the TGI [35] was > 100 µM and the TGI [36] was > 100 µM. For the same compound, the TGI [37] was > 100 µM, the TGI [38] was > 100 µM and the TGI [39] was > 100 µM. The TGI [40] was > 100 µM, the TGI [41] was > 100 µM and the TGI [42] was > 100 µM. The TGI [43] was > 100 µM, the TGI [44] was > 100 µM and the TGI [45] was > 100 µM. For the same compound, the TGI [46] was > 100 µM, the TGI [47] was > 100 µM and the TGI [48] was > 100 µM. The TGI [49] was > 100 µM, the TGI [50] was > 100 µM and the TGI [51] was > 100 µM. For the same compound, the TGI [52] was > 100 µM, the TGI [53] was > 100 µM and the TGI [54] was > 100 µM. The TGI [55] was > 100 µM, the TGI [56] was > 100 µM and the TGI [57] was > 100 µM. The TGI [58] was > 100 µM.
CCOC(=O)Nc1ccc(S(=O)(=O)Nn2cnnc2)cc1 was tested, and the TGI [1] was > 100 µM, the TGI [2] was 96.2 µM and the TGI [3] was > 100 µM. For the same compound, the TGI [4] was > 100 µM, the TGI [5] was > 100 µM and the TGI [6] was > 100 µM. The TGI [7] was > 100 µM, the TGI [8] was > 100 µM and the TGI [9] was > 100 µM. For the same compound, the TGI [10] was > 100 µM, the TGI [11] was 74.5 µM and the TGI [12] was > 100 µM. The TGI [13] was > 100 µM, the TGI [14] was > 100 µM and the TGI [15] was > 100 µM. The TGI [16] was > 100 µM, the TGI [17] was > 100 µM and the TGI [18] was 59.9 µM. The TGI [19] was > 100 µM, the TGI [20] was 77.9 µM and the TGI [21] was > 100 µM. The TGI [22] was > 100 µM, the TGI [23] was > 100 µM and the TGI [24] was > 100 µM. The TGI [25] was > 100 µM, the TGI [26] was > 100 µM and the TGI [27] was 49.7 µM. The TGI [28] was 73.9 µM, the TGI [29] was > 100 µM and the TGI [30] was > 100 µM. The TGI [31] was > 100 µM, the TGI [32] was > 100 µM and the TGI [33] was > 100 µM. The TGI [34] was 77.4 µM, the TGI [35] was 73.4 µM and the TGI [36] was > 100 µM. The TGI [37] was > 100 µM, the TGI [38] was > 100 µM and the TGI [39] was 94.3 µM. The TGI [40] was > 100 µM, the TGI [41] was > 100 µM and the TGI [42] was > 100 µM. The TGI [43] was 65.1 µM, the TGI [44] was > 100 µM and the TGI [45] was > 100 µM. For the same compound, the TGI [46] was > 100 µM, the TGI [47] was > 100 µM and the TGI [48] was > 100 µM. The TGI [49] was > 100 µM, the TGI [51] was > 100 µM and the TGI [52] was > 100 µM. For the same compound, the TGI [53] was > 100 µM, the TGI [54] was > 100 µM and the TGI [55] was > 100 µM. For the same compound, the TGI [56] was > 100 µM, the TGI [57] was > 100 µM and the TGI [58] was > 100 µM.
COC(=O)Nc1nc2ccc(NC(=O)c3ccc(I)cc3)cc2[nH]1 was tested, and the TGI [1] was > 100 µM, the TGI [2] was > 100 µM and the TGI [3] was > 100 µM. For the same compound, the TGI [4] was > 100 µM, the TGI [5] was > 100 µM and the TGI [6] was > 100 µM. The TGI [7] was > 100 µM, the TGI [8] was > 100 µM and the TGI [9] was > 100 µM. For the same compound, the TGI [10] was > 100 µM, the TGI [12] was > 100 µM and the TGI [13] was > 100 µM. For the same compound, the TGI [14] was > 100 µM, the TGI [15] was > 100 µM and the TGI [16] was > 100 µM. The TGI [17] was > 100 µM, the TGI [18] was > 100 µM and the TGI [19] was > 100 µM. For the same compound, the TGI [20] was > 100 µM, the TGI [21] was > 100 µM and the TGI [22] was > 100 µM. The TGI [23] was > 100 µM, the TGI [24] was > 100 µM and the TGI [25] was > 100 µM. The TGI [26] was > 100 µM, the TGI [27] was > 100 µM and the TGI [28] was > 100 µM. The TGI [29] was > 100 µM, the TGI [59] was > 100 µM and the TGI [30] was > 100 µM. For the same compound, the TGI [31] was > 100 µM, the TGI [32] was > 100 µM and the TGI [33] was > 100 µM. For the same compound, the TGI [34] was > 100 µM, the TGI [35] was > 100 µM and the TGI [36] was > 100 µM. For the same compound, the TGI [37] was > 100 µM, the TGI [38] was > 100 µM and the TGI [39] was > 100 µM. The TGI [40] was > 100 µM, the TGI [41] was > 100 µM and the TGI [42] was > 100 µM. The TGI [43] was > 100 µM, the TGI [44] was > 100 µM and the TGI [45] was > 100 µM. For the same compound, the TGI [46] was > 100 µM, the TGI [47] was > 100 µM and the TGI [48] was > 100 µM. For the same compound, the TGI [49] was > 100 µM, the TGI [50] was > 100 µM and the TGI [52] was > 100 µM. For the same compound, the TGI [53] was > 100 µM, the TGI [54] was > 100 µM and the TGI [55] was > 100 µM. The TGI [56] was > 100 µM, the TGI [57] was > 100 µM and the TGI [58] was > 100 µM.
